Data reported in patent US20210024482A1, “Novel Group of STAT3 Pathway Inhibitors and Cancer Stem Cell Pathway Inhibitors” (Sumitomo Dainippon Pharma Oncology, Inc., priority 2007, published 2021).
Each block holds one compound with its values, some of them ahead of it.

Legend:
[1] = system: Stat3; experiment: Stat3 DNA binding assay (EMSA) with HeLa nuclear extracts; format: biochemical; conditions: HeLa nuclear extract, FIG. 7A/7B
Procedure: Electrophoretic mobility shift assay (EMSA) was performed as described by the manufacturer (Li-Cor Biosciences, Lincoln, Nebr.). Briefly, nuclear extracts were made from HeLa cells using the NucBuster Protein Extraction Kit as described by the manufacturer (EMD Biosciences, San Diego, Calif.). 5 μg of nuclear extract was pre-incubated with the indicated dose of indicated compound for 30 minutes prior to a 15-minute incubation with the IR700-labeled consensus Stat3 oligonucleotide. Samples were then electrophoresed on a polyacrylamide gel and directly scanned using the Odyssey infrared imaging system (Li-Cor Biosciences). For the enzyme-linked immunosorbent assay (ELISA), 5 μg of nuclear extract was preincubated with indicated concentration of indicated compound for 30 minutes prior to the addition of biotinylated oligo (5′-Biotin-[…]-3′, SEQ ID NO. 1). Stat3-DNA complexes were then captured on streptavidin coated 96 well plates (Pierce, Rockford, Ill.). Bound complexes were then incubated with Stat3 polyclonal antibody (Santa Cruz Biotechnology, Santa Cruz, Calif.) followed by anti-rabbit HRP conjugated secondary antibody (GE Healthcare, Pittsburgh, Pa.). Bound antibody was then visualized by addition of TMB substrate (Pierce) and absorbance measured at 450 nm,
Nuclear extracts from HeLa cells, which contain constitutively activated Stat3 as detected by phoshporylation at the tyrosine 705 residue, were used to perform Stat3 EMSAs to monitor Stat3 DNA binding activity. Nuclear extracts were incubated with indicated compound prior to incubation with IR700-labeled Stat3 consensus oligonucleotide. Binding of Stat3 to the oligonucleotide was monitored by gel electrophoresis and detection using a LiCor Odyssey infrared scanner.

[2] = system: Stat3; experiment: Stat3-luciferase (Stat3-Luc) reporter assay, OSM-stimulated HeLa cells; format: cell-based; conditions: FIG. 6
Procedure: HeLa Cells were co-transfected with Stat3-luciferase (Stat3-Luc) reporter vector (Panomics, Fremont, Calif.) and Renilla luciferase (Promega, Madison, Wis.) using Lipofectamine 2000 as described by the manufacturer (Invitrogen). Following transfection, cells were maintained in medium containing 0.5% FBS for 24 hours. Cells were then treated with the indicated compound for 30 minutes prior to the addition of 25 ng/ml oncostatin M (OSM) (R&D Systems, Minneapolis, Minn.) to the medium. 6 hours following OSM addition, cells were harvested and levels of firefly and renilla luciferase were measured using the Dual-Glo Luciferase Assay System as described by the manufacturer (Promega).
Compounds were tested for their ability to inhibit Stat3 transcription activation activity in cells using a Stat3-luciferase (Stat3-luc) reporter construct. Cells transfected with Stat3-luc were cultured in reduced serum medium prior to addition of indicated compound for 30 minutes. Cells were then stimulated with 25 ng/ml oncostatin M (OSM) for 6 hours followed by detection of Stat3-luc reporter activity. […] AG490, a known inhibitor of the Jak-Stat pathway, was included as a positive control for Stat3 inhibition.

[3] = system: SW480 Hoechst SP cells; experiment: MTT cell viability, SW480 Hoechst side population CSCs; format: cell-based; conditions: for IC50: Homo sapiens, SW480 Hoechst SP, 48 h
Procedure: (§1) To identify and isolate side population (SP) and non-SP fractions, SW480 cells were removed from the culture dish with trypsin and EDTA, pelleted by centrifugation, washed with phosphate-buffered saline (PBS), and resuspended at 37° C. in Dulbecco's modified Eagle's medium (DMEM) containing 2% FBS and 1 mM HEPES. The cells were then labeled with Hoechst 33342 (Invitrogen) at a concentration of 5 μg/mL. The labeled cells were incubated for 120 minutes at 37° C., either alone or with 50 μM verapamil (Sigma-Aldrich, St. Louis). After staining, the cells were suspended in Hanks' balanced saline solution (HBSS; Invitrogen) containing 2% FBS and 1 mM HEPES, passed a through 40 μm mesh filter, and maintained at 4° C. until flow cytometry analysis. The Hoechst dye was excited at 350 nm, and its fluorescence was measured at two wavelengths using a 450 DF10 (450/20 nm band-pass filter) and a 675LP (675 nm long-pass edge filter) optical filter. The gating on forward and side scatter was not stringent, and only debris was excluded,
(§2) For 3-(4,5 dimethylthiazol-2-yl)-2,5-diphenyltetrazolium (MTT) (Sigma-Aldrich, St. Louis, Mo.) analysis, cells were plated in 96 well plates at 10,000 cells per well. 24 hours after plating, compound was added to cells at indicated doses. 22 hours following compound addition, MTT was added to each well (0.5 mg/ml, final concentration) and plates were incubated for an additional 2 hours at 37° C. Medium was then aspirated and the formazan product was solubilized in 100 μl of isopropyl alcohol. The absorbance of each well was measured at 570 nm using a microplate reader.
The IC50 of compound 401 against the Hoechst side population was accessed in MTT assays and was compared to the IC50 against the non-side population.
In addition, we tested the activities of several other compounds against cancer stem cells. Briefly, freshly isolated CSCs (SW480 Hoechst SP cells or CD44^high FaDu cells) were exposed to a dose range (30-0.117 μM) of compound for 48 h before examining cell viability by MTT assay. IC50s were estimated by plotting the percentage of surviving cells. As shown in Table 4 and Table 5, compounds of present invention can target cancer stem cells.

[4] = system: Paca2 cells; experiment: MTT cell viability Paca2; format: cell-based; conditions: PaCa-2; Paca2, Pancreas, MTT 24 hours
Procedure: as §2
(§3) Cells plated in 96 well plates and treated with indicated compounds were subjected to MTT analysis at 24 hours following compound treatment to determine cell viability.

[5] = system: CD44^low FaDu cells; experiment: MTT cell viability, CD44low FaDu cells; format: cell-based; conditions: Homo sapiens, 48 h
[6] = system: FaDu cells; experiment: MTT cell viability FaDu; format: cell-based; conditions: Homo sapiens, Head and Neck, MTT 24 hours
Procedure: as §2, §3

[7] = system: SW480 non-side population (NSP) cells; experiment: MTT cell viability, SW480 non-side population; format: cell-based; conditions: Homo sapiens, 48 h
Procedure: as §1
For 3-(4,5 dimethylthiazol-2-yl)-2,5-diphenyltetrazolium (MTT) (Sigma-Aldrich, St. Louis, Mo.) analysis, cells were plated in 96 well plates at 10,000 cells per well. 24 hours after plating, compound was added to cells at indicated doses. […] The absorbance of each well was measured at 570 nm using a microplate reader. […]

[8] = system: CD44^high FaDu cells; experiment: MTT cell viability, CD44high FaDu CSCs; format: cell-based; conditions: Homo sapiens, 48 h
Procedure: CD44^high cells were isolated by FACS according to the methods described in Ponti et al, with slight modification. Briefly, after trypsinization and recovery of cells for 30 minutes at 37° C. in growth media, cells were pelleted at 400×g and were resuspended in PBS with 2% FBS and 1 mM EDTA at 1×10^6 cells/mL. Cells were then incubated on ice with a 1:100 dilution of CD44-FITC (BD Biosicences, San Diego, Calif.) for 15 minutes. Alternatively, CD24-PE (BD Bioscences, San Diego, Calif.) (1:100) was utilized for negative selection. After washing three times, cells were resuspended at 2×10^6/mL and passed through a […] mesh before sorting.
as §2
In addition, we tested the activities of several other compounds against cancer stem cells. […]

[9] = system: CD44^high CSCs; experiment: Sphere assay with CD44high CSCs; format: cell-based; conditions: spheres grown 72 hours before challenge, FIGS. 10A and 10B
Procedure: A reliable method of measuring the self-renewal capacity of cell population if the ability to be cultured as spheres in the absence of serum or attachment. CD44^high FaDu or Hoechst side population cancer stem cells were cultured in ultra low attachment plates in cancer stem cell media (DMEM/F12, B27 Neurobasal supplement, 20 ng/ml EGF, 10 ng/ml FGF, 4 μg/ml insulin, and 0.4% BSA) to allow spheres formation. Typically, sphere formation was evaluated by microscopy after 10-14 days in culture and spheres with >50 cells were scored.
One of the hallmarks cancer stem cells is their ability to self-renew. A reliable method of measuring the self-renewal capacity of cell populations is the ability to be cultured as spheres in the absence of serum or attachment. To compare the ability of compound 401 to other targeted and chemotherapeutic agents, FACS-isolated CD44^high CSCs were grown as spheres for 72 hours before being challenged with a panel of therapeutic agents. […] Tarceva, Sutent, and Gleevec were added at approximately three times their reported therapeutic concentrations.

[10] = system: SW480 cells; experiment: Hoechst side population staining of SW480 cells; format: cell-based; conditions: treatment before Hoechst staining, FIG. 8A
Procedure: as §1
To confirm that this side population is enriched with cancer stem cells, a control set of SW480 cells were first treated with Verapamil, an inhibitor of ABC transporters, before stained with Hoechst.

- inhibition of Stat3 DNA binding activity [1]: can inhibit Stat3's DNA binding activity
Compound: CC(=O)c1cc2c(o1)C(=O)c1cc(Cl)ccc1C2=O [Compound 416, 2-Acetyl-7-Chloro-naphtho[2,3-b]furan-4,9-dione]

- inhibition of Stat3 DNA binding activity [1]: can inhibit Stat3's DNA binding activity
Compound: CC(=O)c1cc2c(o1)C(=O)c1cc(F)ccc1C2=O [Compound 418, 2-Acetyl-7-Fluoro-naphtho[2,3-b]furan-4,9-dione]

Compound: O=C(c1ccccc1)c1cc2cc3ccccc3cc2s1 [Compound 1001, reference compound]
- inhibition of OSM-stimulated Stat3 reporter activity [2]: did not inhibit OSM-stimulated Stat3 reporter activity even at a much higher concentration

- IC50 [3]: 0.38 µM
- IC50 [7]: 0.34 µM
Compound: C=C(OP(=O)(O)O)C1=CC2C(=O)c3ccccc3C(=O)C2O1 (stereo not drawn) [Compound 4011, phosphoric acid mono-[1-(4,9-dioxo-3a,4,9,9a-tetrahydro-naphtho[2,3-b]furan-2-yl)-vinyl] ester]
- IC50 [4]: 0.446 µM
- IC50 [5]: 0.42 µM
- IC50 [6]: 0.353 µM
- IC50 [8]: 0.27 µM

Compound: C=C(OP(=O)(OC)OC)C1=CC2C(=O)c3ccccc3C(=O)C2O1 (stereo not drawn) [Compound 4012, phosphoric acid 1-(4,9-dioxo-3a,4,9,9a-tetrahydro-naphtho[2,3-b]furan-2-yl)-vinyl ester dimethyl ester]
- IC50 [3]: 0.57 µM
- IC50 [5]: 0.76 µM
- IC50 [6]: 1.04 µM
- IC50 [7]: 0.81 µM
- IC50 [8]: 1.05 µM

Compound: COc1cccc2c1C(=O)c1c(O)c3c(c(O)c1C2=O)C[C@@](O)(C(=O)CO)C[C@@H]3O[C@H]1C[C@H](N)[C@H](O)[C@H](C)O1 [Doxorubicin, reference compound]
- sensitivity of side population compared to non-side population ([3]; FIG. 8B): the side population is much more resistant than the non-side population
- prevention of sphere proliferation [9]: spheres were resistant

Compound: COc1ccc(CCN(C)CCCC(C#N)(c2ccc(OC)c(OC)c2)C(C)C)cc1OC (stereo not drawn) [Verapamil]
- effect on Hoechst side population [10]: loss of the side population

Compound: CC(=O)O[C@@]12CO[C@@H]1C[C@H](O)[C@@]1(C)C(=O)[C@H](O)C3=C(C)[C@@H](OC(=O)[C@H](O)[C@@H](NC(=O)OC(C)(C)C)c4ccccc4)C[C@@](O)([C@@H](OC(=O)c4ccccc4)[C@H]21)C3(C)C [docetaxel]
- prevention of sphere proliferation [9]: spheres were resistant
